Results on 46 molecules are retold here after patent US20060264460A1 (Wyeth, priority 2005, published 2006).

SMILES strings stand for the structures. pIC50: −log10 of the molar value. Where only a bound is given, the exact number is not on record here.

The target of one experiment is T1, human Cot/Tpl2 kinase (Homo sapiens, UniProt P41279).
T1 construct: human Cot/Tpl2 kinase construct encoding residues 30-398; 6His (N); made in house; host or cells: Sf9 insect cells, baculovirus system (BD Biosciences)
T1 sequence (P41279 30-398): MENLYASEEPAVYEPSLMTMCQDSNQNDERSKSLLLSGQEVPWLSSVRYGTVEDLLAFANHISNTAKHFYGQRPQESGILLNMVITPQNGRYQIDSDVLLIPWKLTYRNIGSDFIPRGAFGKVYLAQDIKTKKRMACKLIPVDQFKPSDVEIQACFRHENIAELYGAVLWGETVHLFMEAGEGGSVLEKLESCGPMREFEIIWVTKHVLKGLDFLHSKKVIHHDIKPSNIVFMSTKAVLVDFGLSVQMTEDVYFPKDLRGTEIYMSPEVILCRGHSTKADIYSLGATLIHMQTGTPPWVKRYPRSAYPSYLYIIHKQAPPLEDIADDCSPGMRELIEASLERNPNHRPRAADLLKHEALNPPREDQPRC
The experiment is described as follows: Tpl2/Cot kinase assay: GST-MEK1 phosphorylation detected by ELISA (DELFIA Eu). The format is biochemical. The following applies: 0.4 nM Tpl2, 35 nM GST-MEK1, 50 uM ATP, 1 h at 30° C. An outline of the steps: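 His-tagged human Tpl2 from Sf9 cells, Ni-affinity and size-exclusion purified (monomer). 0.4 nM Tpl2 with 35 nM GST-MEK1, 50 uM ATP, MOPS pH 7.2, 1% DMSO, 1 h at 30° C; EDTA stop. MEK1 Ser217/221 phosphorylation detected by anti-phospho-MEK1 and Eu-labelled secondary ELISA; IC50 fitted.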
In general terms: An ELISA detects its analyte on a solid surface through an enzyme-linked reagent.
In turn, `N#Cc1cnc2c(Br)cc(NCc3nn[nH]c3-c3ccccc3F)cc2c1Nc1ccc(F)c(Cl)c1` [Example 118, 8-bromo-4-[(3-chloro-4-fluorophenyl)amino]-6-({[5-(2-fluorophenyl)-1H-1,2,3-triazol-4-yl]methyl}amino)quinoline-3-carbonitrile] gave a negative logarithm of the IC50 (pIC50) of 6.96.

Regarding `N#Cc1cnc2ccc(NCc3nccn3CC(=O)N3CCOCC3)cc2c1Nc1ccc(F)c(Cl)c1` [Example 138, 4-(3-chloro-4-fluorophenylamino)-6-((1-(2-morpholino-2-oxoethyl)-1H-imidazol-2-yl)methylamino)quinoline-3-carbonitrile], the pIC50 was 7.57.

For the molecule `N#Cc1cnc2c(O)cc(NCc3cnc[nH]3)cc2c1Nc1ccc(F)c(Cl)c1` [Example 181, 6-((1H-imidazol-5-yl)methylamino)-4-(3-chloro-4-fluorophenylamino) 8-hydroxyquinoline-3-carbonitrile], the pIC50 is 4.95. This pIC50 is 2.62 log units lower than that of the molecule before.

With `N#Cc1cnc2c(Cl)cc(NCc3cn(C4CCC(O)(c5ccccn5)CC4)nn3)cc2c1Nc1ccc(F)c(Cl)c1` (stereo not shown) [Example 335, 8-chloro-4-[(3-chloro-4-fluorophenyl)amino]-6-({[1-(4-hydroxy-4-pyridin-2-ylcyclohexyl)-1H-1,2,3-triazol-4-yl]methyl}amino)quinoline-3-carbonitrile], the pIC50 is 7.70.

As to `CN(C)C(=O)c1cc(NCc2ccc(C#N)cc2)cc2c(Nc3ccc(F)c(Cl)c3)c(C#N)cnc12` [Example 86, 4-(3-chloro-4-fluorophenylamino)-3-cyano-6-(4-cyanobenzylamino)-N,N-dimethylquinoline-8-carboxamide], the pIC50 is 5.96. Against the preceding molecule, the pIC50 is 1.74 log units lower.

Molecule `CN(C)c1ccc(CNc2ccc3ncc(C#N)c(Nc4ccc(F)c(Cl)c4)c3c2)c(F)c1C#N` [Example 20, 4-(3-Chloro-4-fluoro-phenylamino)-6-(3-cyano-4-dimethylamino-2-fluoro-benzylamino)-quinoline-3-carbonitrile] gave a pIC50 of 6.21. Compared with the last molecule, the pIC50 is 0.25 log units higher.

As to `COC(=O)Cn1ccnc1CNc1ccc2ncc(C#N)c(Nc3ccc(F)c(Cl)c3)c2c1` [Example 137, Methyl 2-(2-((4-(3-chloro-4-fluorophenylamino)-3-cyanoquinolin-6-ylamino)methyl)-1H-imidazol-1-yl)acetate], the pIC50 is 7.55. This pIC50 is 1.34 log units higher than that of the molecule before.

As for `N#Cc1cnc2ccc(NCC3CCCNC3)cc2c1Nc1ccc(F)c(Cl)c1` (stereo not shown) [Example 64, 4-(3-Chloro-4-fluoro-phenylamino)-6-[(piperidin-3-ylmethyl)-amino]-quinoline-3-carbonitrile], the pIC50 is less than 4.40.

As to `N#Cc1cnc2c(Br)cc(NCc3cnc[nH]3)cc2c1Nc1ccc(F)c(Cl)c1` [Example 76, 6-((1H-imidazol-5-yl)methylamino)-8-bromo-4-(3-chloro-4-fluorophenylamino)quinoline-3-carbonitrile], the pIC50 is 8.17.

The molecule `N#Cc1cnc2c(C(F)(F)F)cc(NCc3cnc(S(=O)(=O)c4ccccc4)s3)cc2c1Nc1ccc(F)c(Cl)c1` [Example 242, 4-[(3-chloro-4-fluorophenyl)amino]-6-({[2-(phenylsulfonyl)-1,3-thiazol-5-yl]methyl}amino)-8-(trifluoromethyl)quinoline-3-carbonitrile] gave a pIC50 of less than 4.40.

`COc1c(C)c[n+]([O-])c(CNc2cc(Cl)c3ncc(C#N)c(Nc4ccc(F)c(Cl)c4)c3c2)c1C` [Example 277, 8-Chloro-4-[(3-chloro-4-fluorophenyl)amino]-6-{[(4-methoxy-3,5-dimethyl-1-oxidopyridin-2-yl)methyl]amino}quinoline-3-carbonitrile] gave a pIC50 of 7.18.

Molecule `N#Cc1cnc2c(Br)cc(NCc3cn(-c4ccc(C(=O)O)cc4)nn3)cc2c1Nc1ccc(F)c(Cl)c1` [Example 292, 4-(4-{[8-Bromo-4-(3-chloro-4-fluoro-phenylamino)-3-cyano-quinolin-6-ylamino]-methyl}-[1,2,3]triazol-1-yl)-benzoic acid] showed a pIC50 of 8.46.

`CN1CCN(S(=O)(=O)c2ccc(CNc3ccc4ncc(C#N)c(Nc5ccc(F)c(Cl)c5)c4c3)cc2)CC1` [Example 122, 6-(4-(4-methylpiperazin-1-ylsulfonyl)benzylamino)-4-(3-chloro-4-fluorophenylamino)quinoline-3-carbonitrile] showed a pIC50 of 6.24.

Regarding `CS(=O)(=O)c1nccc(CNc2cc(Cl)c3ncc(C#N)c(Nc4ccc(F)c(Cl)c4)c3c2)n1` [Example 282, 8-Chloro-4-[(3-chloro-4-fluorophenyl)amino]-6-({[2-(methylsulfonyl)pyrimidin-4-yl]methyl}amino)quinoline-3-carbonitrile], the pIC50 is 7.64.

Staying with this experiment, now noted: Table 2; Tpl2/Cot kinase, GST-MEK1 substrate, 50 uM ATP.
`N#Cc1cnc2c(Cl)cc(NCc3cn(C4CCOCC4)nn3)cc2c1Nc1ccc(F)c(Cl)c1` [Example 570] had a pIC50 of 7.85.

Molecule `Cc1cc(CNc2cc(Cl)c3ncc(C#N)c(Nc4ccc(F)c(Cl)c4)c3c2)n(C)n1` [Example 430] showed a pIC50 of 6.92. Compared with the last molecule, the pIC50 is 0.93 log units lower.

On to `CS(=O)(=O)N1CCC(n2cc(CNc3cc(Br)c4ncc(C#N)c(Nc5ccc(F)c(Cl)c5)c4c3)nn2)CC1` [Example 525], for which the pIC50 was 8.96.

As for `N#Cc1cnc2c(Cl)cc(NCc3cn(CCCN4CCNCC4)nn3)cc2c1Nc1ccc(F)c(Cl)c1` [Example 597], the pIC50 was 6.80.

Molecule `N#Cc1cnc2c(Cl)cc(NCc3cn(Cc4cccnc4)cn3)cc2c1Nc1ccc(F)c(Cl)c1` [Example 553] showed a pIC50 of 9.15.

`Cc1ncn(C)c1CNc1ccc2ncc(C#N)c(Nc3ccc(F)c(Cl)c3)c2c1` [Example 388] gave a pIC50 of 6.70.

The molecule `COc1ccsc1CNc1cc(Cl)c2ncc(C#N)c(Nc3ccc(F)c(Cl)c3)c2c1` [Example 445] showed a pIC50 of 5.96.

`N#Cc1cnc2ccc(NCCN3CCOCC3)cc2c1NC1CCN(Cc2ccccc2)CC1` [Example 367] gave a pIC50 of less than 4.40.

`CC(C)(C)OC(=O)N1CCN(CCCn2cc(CNc3cc(Cl)c4ncc(C#N)c(Nc5ccc(F)c(Cl)c5)c4c3)nn2)CC1` [Example 592]: the pIC50 is 6.64.

`CCN1CC(CCn2cc(CNc3cc(Cl)c4ncc(C#N)c(Nc5ccc(F)c(Cl)c5)c4c3)nn2)N(c2ccccc2)C1=O` (stereo not shown) [Example 616] had a pIC50 of 7.60.

In the case of `N#Cc1cnc2c(Cl)cc(NCc3cn(CCOCCOCCO)nn3)cc2c1Nc1ccc(F)c(Cl)c1` [Example 572], the pIC50 is 7.04. Against the preceding molecule, the pIC50 is 0.56 log units lower.

As to `N#Cc1cnc2ccc(NCc3ccn[nH]3)cc2c1NC1CCCC1` [Example 413], the pIC50 was 5.80.

`N#Cc1cnc2c(Br)cc(NCc3cn(-c4cc[n+]([O-])cc4)nn3)cc2c1Nc1ccc(F)c(Cl)c1` [Example 577] gave a pIC50 of 7.82.

Molecule `CC(C)(C)OC(=O)N1CCC(CCn2cc(CNc3cc(Cl)c4ncc(C#N)c(Nc5ccc(F)c(Cl)c5)c4c3)nn2)CC1` [Example 504] gave a pIC50 of 7.12.

Turning to `N#Cc1cnc2c(Br)cc(NCc3cn(CCOCCOCCO)nn3)cc2c1Nc1ccc(F)c(Cl)c1` [Example 573], the pIC50 was 6.85.

For the molecule `CC(C)(C)Nc1c(C#N)cnc2ccc(NCc3ccn[nH]3)cc12` [Example 405], the pIC50 is less than 4.40.

Still in this experiment, the particulars now being: Tpl2/Cot kinase, GST-MEK1 substrate, 50 uM ATP.
In turn, `CC(=O)N(CCNc1cc(Cl)c2ncc(C#N)c(Nc3ccc(F)c(Cl)c3)c2c1)Cc1ccncc1` [Example 844] gave a pIC50 of 7.22.

In turn, `N#Cc1cnc2c(Br)cc(NCc3cn(CC4CCCN4)nn3)cc2c1Nc1ccc(F)c(Cl)c1` (stereo not shown) [Example 722] had a pIC50 of 8.04. Against the preceding molecule, the pIC50 is 0.82 log units higher.

As to `N#Cc1cnc2c(Cl)cc(NCc3cn(C[C@H]4CCCN4)nn3)cc2c1Nc1ccc(F)c(Cl)c1` [Example 889], the pIC50 was 8.08.

With `CN(C)CCn1cc(CNc2cc(Br)c3ncc(C#N)c(Nc4ccc(F)c(Cl)c4)c3c2)nn1` [Example 663], the pIC50 is 7.62.

For `N#Cc1cnc2c(Cl)cc(NCc3cn(CCCNS(=O)(=O)C(F)(F)F)nn3)cc2c1Nc1ccc(F)c(Cl)c1` [Example 906], the pIC50 is 8.89.

Turning to `COCCNC(=O)Cn1cc(CNc2cc(Cl)c3ncc(C#N)c(Nc4ccc(F)c(Cl)c4)c3c2)nn1` [Example 816], the pIC50 was 7.82.

As to `N#Cc1cnc2c(Br)cc(NCc3cn(Cc4cccnc4)cn3)cc2c1Nc1ccc(F)c(Cl)c1` [Example 706], the pIC50 was 8.51.

For the molecule `CC(=O)N(CCNc1cc(Cl)c2ncc(C#N)c(Nc3ccc(F)c(Cl)c3)c2c1)Cc1cccnc1` [Example 843], the pIC50 was 7.24. Against the preceding molecule, the pIC50 is 1.27 log units lower.

Consider `N#Cc1cnc2c(Cl)cc(NCc3cn(CC(=O)N4CCCCCC4)nn3)cc2c1Nc1ccc(F)c(Cl)c1` [Example 814], for which the pIC50 was 8.34. This pIC50 is 1.10 log units higher than that of the molecule before.

In turn, `N#Cc1cnc2c(Cl)cc(NCc3cn(CCc4ccccn4)nn3)cc2c1Nc1ccc(F)c(Cl)c1` [Example 746] showed a pIC50 of 7.60.

`CN(C)CCNC(=O)Cn1cc(CNc2cc(Cl)c3ncc(C#N)c(Nc4ccc(F)c(Cl)c4)c3c2)nn1` [Example 818] gave a pIC50 of 8.17. Against the preceding molecule, the pIC50 is 0.57 log units higher.

Molecule `CN1CCC[C@@H]1Cn1cc(CNc2cc(Cl)c3ncc(C#N)c(Nc4ccc(F)c(Cl)c4)c3c2)nn1` [Example 891] gave a pIC50 of 7.48.

`N#Cc1cnc2c(Cl)cc(NCCNC(=O)Cc3ccccn3)cc2c1Nc1ccc(F)c(Cl)c1` [Example 861]: the pIC50 is less than 5.52.

`N#Cc1cnc2c(Br)cc(NCc3cn(CCC4CCNCC4)nn3)cc2c1Nc1ccc(F)c(Cl)c1` [Example 691] showed a pIC50 of 7.05.

The same experiment, now with this note: Tpl2/Cot kinase, GST-MEK1 substrate, 50 uM ATP, 1 h at 30° C.; Table 2.
With `CC(C)(C)OC(=O)N1CCC(n2cc(CNc3cc(Cl)c4ncc(C#N)c(Nc5ccc(F)c(Cl)c5)c4c3)nn2)CC1` [Example 925], the pIC50 was 7.14.

On to `CNC1CCC(n2cc(CNc3cc(Cl)c4ncc(C#N)c(Nc5ccc(F)c(Cl)c5)c4c3)nn2)CC1` (stereo not shown) [Example 1036], for which the pIC50 is 7.40. Compared with the last molecule, the pIC50 is 0.26 log units higher.

The pIC50 is the negative decadic logarithm of the IC50, by convention in mol/L. Read a high pIC50 as a small IC50.
